Laboratory results published in patent US11884647B2, “Compounds and methods for targeting pathogenic blood vessels” (THE REGENTS OF THE UNIVERSITY OF CALIFORNIA, priority 2019, dated 2024).
“Also recorded” adds a separate entry of the source.

Assays:
PLXDC1 = PLXDC1 receptor activation assay (Gfi1b promotor luciferase reporter); format: cell-based; settings: treatment 1 day; basal activity of PLXDC1-expressing cells = 1
Source text: (§1) FIG. 5A-B show activation of PLXDC1 and PLXDC2 by small molecules. […] All compound treatments were done for 1 day. Basal promotor activity of the PLXDC1-expressing cells is defined as 1.

[1] = tested on: tumor endothelial cells (CT26.CL25 colon cancer tumor); experiment: Colon CT26 ex vivo model of tumor angiogenesis; format: cell-based; settings: Mus musculus, CT26, 48 h, read-out: Cell death
Outline: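 Explant pieces of CT26 tumor (about 0.075 mm^3) were embedded in Matrigel and grown in endothelial growth medium at 37 °C for about 7 days until endothelial outgrowth appeared, then treated. Cell death was read about 48 h after drug addition by fluorescein diacetate (live) and propidium iodide (dead) staining with red/green imaging.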

[2] = tested on: tumor endothelial cells (LL/2 lung cancer tumor); experiment: Lung LL2 ex vivo model of tumor angiogenesis; format: cell-based, mouse; settings: Mus musculus, Endothelial cell, 48 h, read-out: Cell death
Outline: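 Mouse LL2 tumor fragments (~0.5×0.5×0.3 mm) embedded in Matrigel and grown in endothelial growth medium at 37° C until endothelial outgrowth (about 4 days) before drug treatment. About 48 h after drug addition, stained 10 min with fluorescein diacetate/propidium iodide; live (green) and dead (red) cells imaged at 2× with fixed channel settings.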

PLXDC2 = PLXDC2 receptor activation (Gfi1b promotor luciferase reporter); format: cell-based; settings: treatment 1 day
Source text: as §1

[3] = target: T1, extracellular domain of PLXDC1 (PLXDC1-ECD) (Homo sapiens, UniProt Q8IUK5); experiment: Binding to PLXDC1 extracellular domain by suppression of tryptophan fluorescence
T1 construct: the extracellular domain of PLXDC1 (PLXDC1-ECD)
T1 sequence (Q8IUK5 19-426 limits assumed): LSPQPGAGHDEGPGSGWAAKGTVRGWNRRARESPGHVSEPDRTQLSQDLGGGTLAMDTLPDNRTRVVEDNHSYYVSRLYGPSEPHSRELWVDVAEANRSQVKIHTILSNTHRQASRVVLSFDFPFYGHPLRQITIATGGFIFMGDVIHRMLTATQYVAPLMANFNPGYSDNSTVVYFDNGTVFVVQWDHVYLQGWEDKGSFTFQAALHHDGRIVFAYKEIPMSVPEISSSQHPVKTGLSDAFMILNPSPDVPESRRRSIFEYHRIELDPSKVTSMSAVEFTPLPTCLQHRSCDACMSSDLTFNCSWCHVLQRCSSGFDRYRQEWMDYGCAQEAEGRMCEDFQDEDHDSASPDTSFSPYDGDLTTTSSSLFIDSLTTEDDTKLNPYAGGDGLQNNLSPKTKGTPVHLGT
Procedure: The high affinity interaction between compound 346 (Table 3) and the extracellular domain of PLXDC1 (PLXDC1-ECD). […] Tryptophan fluorescence without the compound added is defined as 1. The estimated Kd value is 50 nM.

[4] = tested on: pathogenic blood vessels of the retina; experiment: Ischemia-induced retinopathy in vivo; set-up: species or system mouse; settings: subcutaneous injection during return to room air; n=10 retinas
Source text: A. Upper graph: Schematic diagram of the experimental design for ischemia-induced retinopathy. The high oxygen environment caused blood vessel loss (vaso-obliteration). In room air, loss of vessels triggered abnormal angiogenesis that generated pathogenic blood vessels on the top of the retina (marked in yellow in D). Treatment was applied during the return to room air by subcutaneous injection. […] Red signal is blood vessel marker. C. The same retinas in B with vaso-obliteration areas marked in white color. […] D. The same retinas in B with pathogenic blood vessels marked in yellow color. […] FIG. 7A includes a schematic diagram of the experimental design for ischemia-induced retinopathy. The high oxygen environment caused blood vessel loss (vaso-obliteration). In room air, loss of vessels triggered abnormal angiogenesis that generated pathogenic blood vessels on the top of the retina (marked in yellow in FIG. 7D). Treatment was applied during the return to room air by subcutaneous injection. […] The same retinas in B with vaso-obliteration areas marked in white color (FIG. 7C). […] The same retinas in B with pathogenic blood vessels marked in yellow color (FIG. 7D).

[5] = tested on: tumor / tumor blood vessels; experiment: Tumor animal model, bolus IV injection at day 0, tumor growth and morphology; format: in vivo, mouse; settings: versus control group
Source text: Treatment was done at day 0 by bolus IV injection. […] Treatment was done at day 0. […] Treatment was done at day 0.

[6] = tested on: choroidal endothelial cells; experiment: Ex vivo model of choroidal angiogenesis (choroidal neovascularization); format: cell-based; settings: 10 μM; for effect on new endothelial cells in choroidal angiogenesis: treatment starts after 7 days of angiogenesis, lasts two days, live/dead staining
Procedure: FIG. 2A-E. Comparison of compound 369 with the current anti-angiogenic drug in an ex vivo model of choroidal angiogenesis. A. A schematic diagram of the timeframe of the experiment. […] Treatment lasts for two days before cell death and survival are analyzed. B. Control experiment without any drug treatment at day 7. The white circle in the middle delineates the piece of choroid/RPE that was embedded to initiate neovascularization. C. […] Eylea was added at 10 μM. […] The compound was added at 10 μM. In B-D, green cells are live cells and red cells are dead cells. E. Quantitation of the experiments described in B-D. The amount of new endothelial cells in the untreated control is defined as 100%.

With O=c1[nH]cc(F)c(=O)[nH]1 [Fluorouracil, reference compound] the “Gfi1b promotor activity in PLXDC1-expressing cells” value (PLXDC1) was “does not activate this promoter”.

CCCCCCCOc1ccc(S(=O)(=O)c2cnc3ccc([S+](C)[O-])cc3c2N2CCC(N3CCC(N4CCCCC4)CC3)CC2)cc1 (centres unmarked) [compound 258, 4-([1,4′:1′,4″-terpiperidin]-1″-yl)-3-((4-(heptyloxy)phenyl)sulfonyl)-6-(methylsulfinyl)quinoline] gave a cytotoxicity at 10 µM [1] of 100% and a cytotoxicity at 20 µM [2] of 100%.

CCCCCCCOc1ccc(S(=O)(=O)c2cnc3ccc([S+](C)[O-])cc3c2N2CCN(C)CC2)cc1 (centres unmarked) [compound 259, 3-((4-(heptyloxy)phenyl)sulfonyl)-4-(4-methylpiperazin-1-yl)-6-(methylsulfinyl)quinoline] was tested, and the cytotoxicity at 20 µM [1] was 100% and the cytotoxicity at 20 µM [2] was 95%.

In the case of CCCCCCCCCCCCOc1ccc(S(=O)(=O)c2cnc3ccc([S+](C)[O-])cc3c2N2CCC(N3CCC(N4CCCCC4)CC3)CC2)cc1 (centres unmarked) [compound 342, 4-([1,4′:1′,4″-terpiperidin]-1″-yl)-3-((4-(dodecyloxy)phenyl)sulfonyl)-6-(methylsulfinyl)quinoline], the cytotoxicity at 20 µM [2] is reported as 60%, the “Gfi1b promotor activity in PLXDC1-expressing cells” value (PLXDC1) is reported as “highly activated the promotor activity in PLXDC1-expressing cells” and the “Gfi1b promotor activity in PLXDC2-expressing cells” value (PLXDC2) is reported as “activated the promotor activity in PLXDC2-expressing cells”.

CCCCCCCCCCCCCCOc1ccc(S(=O)(=O)c2cnc3ccc([S+](C)[O-])cc3c2N2CCC(N3CCC(N4CCN(C)CC4)CC3)CC2)cc1 (centres unmarked) [compound 346, 4-(4-(4-methylpiperazin-1-yl)-[1,4′-bipiperidin]-1′-yl)-6-(methylsulfinyl)-3-((4-(tetradecyloxy)phenyl)sulfonyl)quinoline] was tested, and the cytotoxicity at 20 µM [2] was 20%, the “suppression of endogenous tryptophan fluorescence of PLXDC1-ECD” value ([3]; different concentrations, fluorescence without compound = 1) was “suppressed the endogenous tryptophan fluorescence of PLXDC1-ECD in a dose-dependent manner” and the Kd ([3]; estimated from dose-dependent suppression of PLXDC1-ECD tryptophan fluorescence) was 0.05 µM. The “Gfi1b promotor activity in PLXDC1-expressing cells” value (PLXDC1) was “highly activated the promotor activity in PLXDC1-expressing cells”, the “Gfi1b promotor activity in PLXDC2-expressing cells” value (PLXDC2) was “activated the promotor activity in PLXDC2-expressing cells” and the “healthy blood vessels in ischemia-induced retinopathy” value [4] was “improving the amount of healthy blood vessels”. The “pathogenic blood vessels in ischemia-induced retinopathy” value [4] was “specifically suppressed pathogenic blood vessels in vivo without affecting healthy blood vessels; also recorded: highly suppressed pathogenic blood vessels” and the “tumor growth (shrinkage)” value [5] was “shrank the tumors significantly”.

CCCCCCCCCCCCCCOc1ccc(S(=O)(=O)c2cnc3ccc([S+](C)[O-])cc3c2N2CCC(N3CCC(N4CCN(CCO)CC4)CC3)CC2)cc1F (centres unmarked) [compound 369, 2-(4-(1′-(3-((3-fluoro-4-(tetradecyloxy)phenyl)sulfonyl)-6-(methylsulfinyl)quinolin-4-yl)-[1,4′-bipiperidin]-4-yl)piperazin-1-yl)ethanol] was tested, and the “effect on new endothelial cells in choroidal angiogenesis” value [6] was “can kill the new endothelial cells in choroidal angiogenesis”, the “effect on healthy tissue (choroid and RPE)” value ([6]; two days treatment) was “Choroid and RPE are still alive after the treatment; also recorded: without affecting the healthy tissue” and the cytotoxicity at 20 µM [2] was 20%.

With “Eylea: "The most commonly used drug for choroidal neovascularization, Eylea, can inhibit choroidal endothelial cell growth (as expected of an antiangiogenesis drug)" [reference compound]” the “effect on new endothelial cells in choroidal angiogenesis” value [6] was “can inhibit choroidal endothelial cell growth”.
